Broadly, the IC50 is the concentration that inhibits the measured activity by half. Lower therefore signals inhibition by little substance.

This note sets out measurements from ChEMBL document CHEMBL1130765, “5-Aminomethylquinoxaline-2,3-diones, Part III: Arylamide derivatives as highly potent and selective glycine-site NMDA receptor antagonists” (Bioorg Med Chem Lett, 1998).

A value given as a limit tells only on which side of the number the result lay.

Assay [1] addresses Glutamate receptor ionotropic, AMPA (Rattus norvegicus, UniProt P19490+P19491+P19492+P19493). The experiment in a line: In vitro binding assay for the displacement of [3H]AMPA from AMPA receptor. The class given is protein-complex assay.
For assay [2], the target named is Glutamate receptor ionotropic, NMDA 1 (Rattus norvegicus, UniProt P35439). As to the kind of experiment: In vitro binding assay for the displacement of [3H]MDL-105519 from the glycine-site of NMDA receptors.

On to `O=C(NCc1cc(Br)cc2[nH]c(=O)c(=O)[nH]c12)c1ccco1`, for which the IC50 in assay [1] worked out at 6.8 µM; in assay [2], 40 nM.

Regarding `O=C(Cc1ccccc1)NCc1cc([N+](=O)[O-])cc2[nH]c(=O)c(=O)[nH]c12`, the results for the IC50 in assay [1] and in assay [2] were 28.8 µM and 40 nM, respectively.

Take `O=C(NCc1cc(Br)cc2nc(O)c(O)nc12)c1ccccc1`: the IC50 was determined as 1.7 µM in assay [1] and 60 nM in assay [2].

Turning to `COc1cc(C(=O)NCc2cc([N+](=O)[O-])cc3[nH]c(=O)c(=O)[nH]c23)cc(OC)c1OC`, the IC50 in assay [1] was determined as 0.064 µM; in assay [2] it was 200 nM.

With `COc1cccc(CC(=O)NCc2cc(Br)cc3[nH]c(=O)c(=O)[nH]c23)c1`, the results for the IC50 in assay [1] and in assay [2] were > 10 µM and 30 nM, respectively.

As to `COc1ccc(NC(=O)NCc2cc([N+](=O)[O-])cc3[nH]c(=O)c(=O)[nH]c23)cc1`, the half-inhibitory concentration (IC50) in assay [1] is 0.3 µM; in assay [2], 30 nM.

For the compound `O=C(Cc1cccc(Cl)c1)NCc1cc(Br)cc2nc(O)c(O)nc12`, the figures for the IC50 in assay [1] and in assay [2] were > 10 µM and 40 nM, respectively.

Consider `O=C(NCc1cc([N+](=O)[O-])cc2nc(O)c(O)nc12)Nc1ccccc1`, for which the half-maximal inhibitory concentration (IC50) amounted to 4.34 µM in assay [1] and 900 nM in assay [2].

Regarding `O=C(NCc1cc([N+](=O)[O-])cc2[nH]c(=O)c(=O)[nH]c12)c1cc(O)c(O)c(O)c1`, the values for the IC50 in assay [1] and in assay [2] were 0.13 µM and 150 nM, respectively.

Consider `O=C(NCc1cc(Br)cc2nc(O)c(O)nc12)c1cc(C(F)(F)F)cc(C(F)(F)F)c1`, for which the results for the concentration for half-maximal inhibition (IC50) in assay [1] and in assay [2] were > 10 µM and > 10000 nM, respectively.

For the compound `O=C(NCc1cc(Br)cc2[nH]c(=O)c(=O)[nH]c12)C(O)c1ccccc1` (stereo unspecified), the half-inhibitory concentration (IC50) is ~10 µM in assay [1] and 50 nM in assay [2].

Regarding `NS(=O)(=O)c1ccc(C(=O)NCc2cc([N+](=O)[O-])cc3[nH]c(=O)c(=O)[nH]c23)cc1`, the results for the IC50 in assay [1] and in assay [2] were 0.2 µM and 630 nM, respectively.

With `O=C(NCc1cc(Br)cc2[nH]c(=O)c(=O)[nH]c12)C(=O)c1ccccc1`, the 50% inhibitory concentration (IC50) in assay [1] is > 10 µM; in assay [2], 4000 nM.

Regarding `O=C(Cc1cccc([N+](=O)[O-])c1)NCc1cc(Br)cc2[nH]c(=O)c(=O)[nH]c12`, the IC50 is > 10 µM in assay [1] and 40 nM in assay [2].

In the case of `O=C(Cc1ccccc1)NCc1cc(Cl)cc2nc(O)c(O)nc12`, the 50% inhibitory concentration (IC50) was ~10 µM in assay [1] and 10 nM in assay [2].

For `O=C(Cc1ccccc1)NCc1cc(Br)cc2[nH]c(=O)c(=O)[nH]c12`, the IC50 in assay [1] was > 10 µM; in assay [2], 10 nM.

`CC(=O)OC(C(=O)NCc1cc(Br)cc2nc(O)c(O)nc12)c1ccccc1` (stereo unspecified): the IC50 in assay [1] was > 10 µM; in assay [2], 40 nM.

Regarding `O=C(NCc1cc([N+](=O)[O-])cc2[nH]c(=O)c(=O)[nH]c12)c1ccccc1O`, the IC50 in assay [1] was found to be 0.15 µM; in assay [2], 40 nM.

Turning to `O=C(NCc1cc(Br)cc2[nH]c(=O)c(=O)[nH]c12)Oc1ccccc1`, the 50% inhibitory concentration (IC50) in assay [1] is > 10 µM; in assay [2], 1500 nM.

Turning to `O=C(Cc1ccc2c(c1)OCO2)NCc1cc(Br)cc2[nH]c(=O)c(=O)[nH]c12`, the IC50 was > 10 µM in assay [1] and 3900 nM in assay [2].

Take `COc1ccc(CC(=O)NCc2cc(Br)cc3[nH]c(=O)c(=O)[nH]c23)cc1OC`: the 50% inhibitory concentration (IC50) is > 10 µM in assay [1] and 50 nM in assay [2].

Take `O=C(CCc1ccccc1)NCc1cc(Br)cc2nc(O)c(O)nc12`: the IC50 in assay [1] is > 10 µM; in assay [2] it was 860 nM.

Take `COc1ccccc1NC(=O)NCc1cc([N+](=O)[O-])cc2nc(O)c(O)nc12`: the 50% inhibitory concentration (IC50) in assay [1] is 0.63 µM; in assay [2], 30 nM.

Turning to `O=C(NCc1cc(Br)cc2nc(O)c(O)nc12)c1cccs1`, the IC50 was 1.6 µM in assay [1] and 10 nM in assay [2].

For the compound `O=C(Cc1ccc(Cl)cc1)NCc1cc(Br)cc2nc(O)c(O)nc12`, the IC50 in assay [1] was > 10 µM; in assay [2], 20000 nM.

Consider `Nc1ccccc1C(=O)NCc1cc([N+](=O)[O-])cc2[nH]c(=O)c(=O)[nH]c12`, for which the IC50 in assay [1] was 0.3 µM; in assay [2], 170 nM.

In the case of `O=C(Cc1ccsc1)NCc1cc(Br)cc2nc(O)c(O)nc12`, the figures for the IC50 in assay [1] and in assay [2] were 11.3 µM and 10 nM, respectively.

Take `O=C(Cc1ccc([N+](=O)[O-])cc1)NCc1cc(Br)cc2nc(O)c(O)nc12`: the half-maximal inhibitory concentration (IC50) in assay [1] was > 10 µM; in assay [2], 1200 nM.

For the compound `O=C(Cc1ccccc1Cl)NCc1cc(Br)cc2[nH]c(=O)c(=O)[nH]c12`, the results for the concentration for half-maximal inhibition (IC50) in assay [1] and in assay [2] were > 10 µM and 7 nM, respectively.

Turning to `O=C(Cc1ccccc1[N+](=O)[O-])NCc1cc(Br)cc2nc(O)c(O)nc12`, the 50% inhibitory concentration (IC50) in assay [1] is > 10 µM; in assay [2] it was 20 nM.

Turning to `O=C(NCc1cc(Br)cc2nc(O)c(O)nc12)OCc1ccccc1`, the IC50 in assay [1] is ~10 µM; in assay [2], 110 nM.

Regarding `CC(C(=O)NCc1cc(Br)cc2nc(O)c(O)nc12)c1ccccc1` (stereo unspecified), the values for the IC50 in assay [1] and in assay [2] were ~10 µM and 10 nM, respectively.

On to `Cc1ccsc1C(=O)NCc1cc(Br)cc2nc(O)c(O)nc12`, for which the IC50 is ~10 µM in assay [1] and 20 nM in assay [2].

Regarding `O=C(NCc1cc(Br)cc2[nH]c(=O)c(=O)[nH]c12)c1ccsc1`, the IC50 amounted to 2 µM in assay [1] and 10 nM in assay [2].

Consider `O=C(Cc1ccccc1)NCc1cc(P(=O)(O)O)cc2[nH]c(=O)c(=O)[nH]c12`, for which the IC50 is > 10 µM in assay [1] and > 10000 nM in assay [2].

Turning to `O=C(NCc1cc([N+](=O)[O-])cc2nc(O)c(O)nc12)Nc1ccc(OC(F)(F)F)cc1`, the concentration for half-maximal inhibition (IC50) in assay [1] is 1.1 µM; in assay [2] it was 350 nM.

Regarding `Cc1ccc(C(=O)NCc2cc(Br)cc3[nH]c(=O)c(=O)[nH]c23)s1`, the concentration for half-maximal inhibition (IC50) in assay [1] was 1.7 µM; in assay [2], 30 nM.

For `O=C(Cc1ccccc1)NCc1cccc2[nH]c(=O)c(=O)[nH]c12`, the IC50 is > 10 µM in assay [1] and 90 nM in assay [2].

On to `Cn1cccc1C(=O)NCc1cc(Br)cc2[nH]c(=O)c(=O)[nH]c12`, for which the half-maximal inhibitory concentration (IC50) in assay [1] was > 10 µM; in assay [2] it was 20 nM.

Turning to `O=C(NCc1cc(Br)cc2nc(O)c(O)nc12)c1cccnc1`, the IC50 came out at 4.3 µM in assay [1] and 280 nM in assay [2].

With `Cc1ccc(C(=O)NCc2cc(Br)cc3nc(O)c(O)nc23)cn1`, the figures for the IC50 in assay [1] and in assay [2] were ~10 µM and 110 nM, respectively.

Take `Cc1ncccc1C(=O)NCc1cc(Br)cc2nc(O)c(O)nc12`: the half-inhibitory concentration (IC50) in assay [1] is ~10 µM; in assay [2], 1800 nM.

Regarding `O=C(NCc1cc(Br)cc2nc(O)c(O)nc12)c1ccncc1`, the results for the IC50 in assay [1] and in assay [2] were ~10 µM and 250 nM, respectively.
